In article PMC8949187, “Study of Structure–Activity Relationships of the Marine Alkaloid Fascaplysin and Its Derivatives as Potent Anticancer Agents” (Marine Drugs, 2022):

Tests used:
MRC-9 cells = experiment: MTT assay, MRC-9 cells; assay type: cell-based, human; settings: Homo sapiens, MRC9; non-cancer cells; 48 h of treatment; mean ± SD
Experimental: (§1) The human prostate cancer cell lines PC-3, DU145, 22Rv1 and LNCaP, as well as human prostate non-cancer cell line PNT2 were purchased from ATCC (Manassas, VA, USA). HEK 293T (human embryonic kidney cells) and MRC-9 (human fibroblast cells) cell lines were purchased from ECACC (Salisbury, UK). […] Authentication of all cell lines used was recently performed by a commercial service (Multiplexion GmbH, Heidelberg, Germany).
(§2) Cells were cultured as monolayers at 37 °C in a humidified atmosphere with 5% (v/v) CO2 in the correspondent culture medium: 10% FBS/RPMI medium (RPMI medium supplemented with Glutamax^TM-I (gibco® Life technologies^TM, Paisley, UK) containing 10% fetal bovine serum (FBS, gibco® Life technologies^TM) and 1% penicillin/streptomycin (Invitrogen)) for PNT2, LNCaP, 22Rv1, PC-3 and DU145 and cells; 10% FBS/DMEM medium (DMEM medium supplemented with Glutamax^TM-I (gibco® Life technologies^TM) containing 10% FBS and 1% penicillin/streptomycin (gibco® Life technologies^TM)) for MRC-9 and HEK 293 cells. Cells were continuously kept in culture for a maximum of 3 months, and were regularly checked for stable phenotype and mycoplasma infection.
(§3) Effect of the drugs on cell viability in terms of metabolic activity was assessed by MTT assay, as previously reported. Cells were pre-incubated overnight in 96-well plates (6 × 10^3 cells/well in 100 μL/well) in the correspondent culture media. Then, the medium was replaced with fresh 10% FBS/RPMI medium containing the investigated compounds (100 μL/well), and cells were incubated for 48 h, unless otherwise stated. Next, 10 μL/well of (3-(4,5-dimethylthiazol-2-yl)-2,5-diphenyltetrazolium bromide) reagent (MTT, 5 mg/mL) was added. After 2–4 h of incubation, the media was aspirated and the plates were dried. Then, 50 μL/well of DMSO was added to each well and the cell viability was measured using an Infinite F200PRO reader (TECAN, Männedorf, Switzerland). Results were calculated using the GraphPad Prism software v.9.1.1 (GraphPad Software, San Diego, CA, USA) and are represented as IC50 of the compounds calculated using the cells treated with the solvent alone as a control.

PNT2 cells = experiment: MTT assay, PNT2 cells; assay type: cell-based, human; settings: Homo sapiens, PNT2; non-cancer cells; 48 h of treatment; mean ± SD
Experimental: as §1, §2, §3

DU145 cells = experiment: MTT assay, DU145 cells; assay type: cell-based, human; settings: Homo sapiens, DU-145; prostate cancer cells; 48 h of treatment; mean ± SD
Experimental: as §1, §2, §3

[1] = tested on: non-cancer cell lines versus cancer cell lines; experiment: Selectivity index from MTT IC50s; assay type: cell-based, human; settings: for Selectivity index, IC50 (non-prostate) / IC50 (prostate): mean IC50 MRC-9 and HEK-293 versus mean IC50 prostate cancer cell lines plus PNT2; for Selectivity index, IC50 (non-prostate) / IC50 (prostate) / Selectivity index, IC50 (non-cancer) / IC50 (cancer): MTT; for Selectivity index, IC50 (non-cancer) / IC50 (cancer): mean IC50 non-cancer cell lines versus mean IC50 cancer cell lines
Experimental: as §3, with “Next, SAR analysis was performed to identify the structural elements that are beneficial for anticancer activity of the fascaplysin-related molecules. Considering the complex and heterogeneous nature of tumors even within the same patient, we used calculated mean IC50 values of each drug in all prostate cancer cells for further analysis (Figure 2A). To identify the drug candidates with the highest therapeutic potential, the selectivity index (SI) was calculated as mean IC50 in non-cancer cells versus mean IC50 in cancer cells (Figure 2B), or as a mean IC50 in non-cancer (MRC-9 and HEK293) cells versus mean IC50 in prostate cells (cancer PC-3, 22Rv1, DU145, LNCaP and non-cancer PNT2 cells) (Figure 2C). Finally, to estimate the effects on cellular metabolism, we compared the activity evaluated by using trypan blue assay versus MTT assay (Figure 2D). Effect” for “Effect”, “2-4” for “2–4”, “F200PRO” left out

[2] = tested on: prostate cancer cell lines (PC-3, 22Rv1, DU145 and LNCaP); experiment: MTT assay, mean over four prostate cancer cell lines; assay type: cell-based; settings: Homo sapiens; mean of MTT IC50 in PC-3, 22Rv1, DU145 and LNCaP; from Table S1 values; read-out: mean IC50 in cancer cells
Experimental: as §3, with “Next, SAR analysis was performed to identify the structural elements that are beneficial for anticancer activity of the fascaplysin-related molecules. Considering the complex and heterogeneous nature of tumors even within the same patient, we used calculated mean IC50 values of each drug in all prostate cancer cells for further analysis (Figure 2A). To identify the drug candidates with the highest therapeutic potential, the selectivity index (SI) was calculated as mean IC50 in non-cancer cells versus mean IC50 in cancer cells (Figure 2B), or as a mean IC50 in non-cancer (MRC-9 and HEK293) cells versus mean IC50 in prostate cells (cancer PC-3, 22Rv1, DU145, LNCaP and non-cancer PNT2 cells) (Figure 2C). Finally, to estimate the effects on cellular metabolism, we compared the activity evaluated by using trypan blue assay versus MTT assay (Figure 2D). Effect” for “Effect”, “2-4” for “2–4”, “F200PRO” left out

HEK-293 cells = experiment: MTT assay, HEK-293 cells; assay type: cell-based, human; settings: Homo sapiens, HEK293; non-cancer cells; 48 h of treatment; mean ± SD
Experimental: as §1, §2, §3

22Rv1 cells [3] = experiment: Trypan blue-based viability assay; assay type: cell-based, human; settings: Homo sapiens, 48 h of treatment, mean ± SD, read-out: IC50, trypan blue staining assay
Experimental: The effect of the drugs on cell viability in terms of cellular membrane integrity was evaluated by the trypan blue exclusion assay as described before. In brief, cells (0.2 × 10^6 cells/well) were seeded in 6-well plates and incubated overnight, and the media was replaced with fresh media (1 mL/well) containing drugs at indicated concentrations. After treatment for 48 h, the cells were harvested by trypsinization, stained with trypan blue and the viability was measured using an automatic Beckman Coulter Vi-CELL (Beckman Coulter, Krefeld, Germany). Trypan blue-positive cells were assumed to have damaged cellular membrane (i.e., dead), whereas trypan blue-negative cells were considered to have an intact cellular membrane (i.e., alive).

LNCaP cells = experiment: MTT assay, LNCaP cells; assay type: cell-based, human; settings: Homo sapiens, LNCaP; prostate cancer cells; 48 h of treatment; mean ± SD
Experimental: as §1, §2, §3

[4] = tested on: double-stranded calf thymus DNA; experiment: Thiazole orange displacement (DNA intercalation) assay; assay type: binding; settings: 1 µM calf thymus DNA base pairs, 2 µM thiazole orange; 7 min at room temperature; mean ± SD
Experimental: DNA intercalation activity of the compounds was calculated as an ability to displace thiazole orange (TO) from the double-stranded DNA. For this experiment, a mixture (100 µL) containing 1 µM of double-stranded calf thymus DNA (recalculated as a concentration of base pairs) and 2 µM of thiazole orange (TO) solved in water was prepared. Then, the investigated compounds were added up to final concentrations of 0.39–25 µM; DMSO concentration in the samples was <0.02%. Propidium iodide (PI, positive control) was added up to final concentrations of 0.039–2.5 uM. After 7 min of incubation at room temperature, TO fluorescence was monitored using a multimodal plate reader TECAN Spark (Tecan Group Ltd., Männedorf Switzerland) at the excitation λ = 480 nm; fluorescence was recorded at λ = 530 nm. The bandwidth was 10 nm. The concentration of the drug that caused a decrease in TO fluorescence by 50% (EC50) was determined by approximating the experimental data using a non-linear regression algorithm and calculated using the GraphPad Prism software v.9.1.1 (GraphPad Software, San Diego, CA, USA).

22Rv1 cells [5] = experiment: DNA fragmentation (apoptosis, sub-G1), flow cytometry with PI staining; assay type: cell-based, human; settings: treated at IC50 (MTT assay) for 48 h, mean ± SD
Experimental: (§4) The effects on cell cycle progression and DNA fragmentation were analyzed by flow cytometry using PI staining, as described before. Cells (2 × 10^5 cells/well) were pre-incubated overnight in 6-well plates and then treated with the investigated drugs in fresh culture media (2 mL/well) for 48 h. Cells were harvested by trypsinization, fixed in 70% EtOH, stained with PI solution and analyzed by FACS Calibur (BD Bioscience, San Jose, CA, USA). The results were quantified using BD Bioscience Cell Quest Pro v.5.2.1. software (BD Bioscience). The cells appearing as a sub-G1 population (containing fragmented DNA) were considered to be apoptotic.

PC-3 cells = experiment: MTT assay, PC-3 cells; assay type: cell-based, human; settings: Homo sapiens, PC-3; prostate cancer cells; 48 h of treatment; mean ± SD
Experimental: as §1, §2, §3

22Rv1 cells [6] = experiment: MTT assay, 22Rv1 cells; assay type: cell-based, human; settings: Homo sapiens, 22Rv1; prostate cancer cells; 48 h of treatment; mean ± SD
Experimental: as §1, §2, §3

22Rv1 cells [7] = experiment: Cell cycle progression, flow cytometry with PI staining; assay type: cell-based, human; settings: treated at IC50 (MTT assay) for 48 h
Experimental: as §4

Row | Structure (SMILES) | IC50 (DU145 cells) | IC50 [2] | IC50 (22Rv1 cells [3]) | IC50 (LNCaP cells) | EC50 [4] | % of sub-G1 apoptotic cells (at IC50) (22Rv1 cells [5]) | IC50 (PC-3 cells) | IC50 (22Rv1 cells [6]) | Cell cycle arrest (at IC50) (22Rv1 cells [7]) | IC50 (MRC-9 cells) | IC50 (PNT2 cells) | Selectivity index, IC50 (non-prostate) / IC50 (prostate) [1] | Selectivity index, IC50 (non-cancer) / IC50 (cancer) [1] | IC50 (HEK-293 cells) | Selectivity index (SI), for Figure 2B,C ([1]; both SI definitions (Figure 2B,C))
1 | O=C1c2ccccc2-[n+]2ccc3c([nH]c4cc(Br)ccc43)c21 [Compound 5, 10-Bromofascaplysin] | 1270 ± 206 nM | 5010 nM | 482 ± 91 nM | 460 ± 76 nM | 2010 ± 10 nM | 3.63±0.844% | 17800 ± 1940 nM | 500 ± 67 nM |  | 20300 ± 5400 nM | 302 ± 90 nM | 2.57 | 1.41 | 649 ± 78 nM | 
2 | O=C1c2ccccc2-[n+]2ccc3c([nH]c4ccc(I)cc43)c21.[Cl-] [Compound 7, 12,13-dihydro-9-iodo-13-oxopyrido[1,2-a:3,4-b’]diindol-5-ium chloride] | 319 ± 75 nM | 1180 nM | 80 ± 4 nM | 171 ± 35 nM | 2140 ± 100 nM | 6.3±0.906% | 3670 ± 200 nM | 550 ± 71 nM |  | 924 ± 132 nM | 145 ± 66 nM | 0.89 | 0.53 | 809 ± 164 nM | < 1
3 | O=C1c2cc(Br)ccc2-[n+]2ccc3c([nH]c4ccc(Cl)cc43)c21.[Cl-] [Compound 12, 12,13-dihydro-2-bromo-9-chloro-13-oxopyrido[1,2-a:3,4-b’]diindol-5-ium chloride] | 2080 ± 580 nM | 5230 nM | 1640 ± 850 nM | 2700 ± 173 nM |  | 6.95±0.901% | 13200 ± 2870 nM | 2890 ± 890 nM | No | 36300 ± 9510 nM | 3330 ± 806 nM | 3.82 | 2.58 | 750 ± 65 nM | 
4 | O=C1c2ccccc2-[n+]2cc(-c3ccccc3)c3c([nH]c4ccccc43)c21.[Cl-] [Compound 16, 12,13-dihydro-7-phenyl-13-oxopyrido[1,2-a:3,4-b’]diindol-5-ium chloride] | 491 ± 68 nM | 300 nM | 172 ± 74 nM | 141 ± 58 nM | 1160 ± 20 nM | 7±1.4% | 391 ± 84 nM | 185 ± 39 nM |  | 596 ± 110 nM | 434 ± 21 nM | 1.73 | 1.73 | 538 ± 69 nM | 

Continued by falling IC50 (DU145 cells), values first:

Row | IC50 (DU145 cells) | IC50 [2] | IC50 (22Rv1 cells [3]) | IC50 (LNCaP cells) | EC50 [4] | % of sub-G1 apoptotic cells (at IC50) (22Rv1 cells [5]) | IC50 (PC-3 cells) | IC50 (22Rv1 cells [6]) | Cell cycle arrest (at IC50) (22Rv1 cells [7]) | Structure (SMILES) | IC50 (MRC-9 cells) | IC50 (PNT2 cells) | Selectivity index, IC50 (non-prostate) / IC50 (prostate) [1] | Selectivity index, IC50 (non-cancer) / IC50 (cancer) [1] | IC50 (HEK-293 cells) | Selectivity index (SI), for Figure 2B,C ([1]; both SI definitions (Figure 2B,C))
5 | 2370 ± 450 nM | 950 nM | 375 ± 90 nM | 611 ± 47 nM | 1030 ± 30 nM | 13.4±0.92% | 564 ± 98 nM | 271 ± 46 nM |  | CCc1c[n+]2c(c3[nH]c4ccccc4c13)C(=O)c1ccccc1-2.[Cl-] [Compound 17, 12,13-dihydro-7-ethyl-13-oxopyrido[1,2-a:3,4-b’]diindol-5-ium chloride] | 1450 ± 645 nM | 490 ± 90 nM | 1.25 | 0.92 | 700 ± 211 nM | 
6 | 2240 ± 890 nM | 2180 nM | 2030 ± 609 nM | 2240 ± 810 nM | 380 ± 20 nM | 14.2±0.567% | 2670 ± 140 nM | 1590 ± 514 nM |  | Cc1cc2c([nH]c3ccccc32)c2[n+]1-c1ccccc1C2=O.[Cl-] [Compound 19, 12,13-dihydro-6-methyl-13-oxopyrido[1,2-a:3,4-b’]diindol-5-ium chloride] | 2980 ± 930 nM | 3250 ± 795 nM | 1.00 | 1.23 | 1820 ± 387 nM | 
7 | 1900 ± 634 nM | 1550 nM | 260 ± 54 nM | 349 ± 81 nM | 1360 ± 30 nM | 8.83±0.7% | 3400 ± 1890 nM | 529 ± 69 nM |  | O=C1c2cc(Br)ccc2-[n+]2ccc3c([nH]c4ccccc43)c21.[Cl-] [Compound 4, 12,13-dihydro-2-bromo-13-oxopyrido[1,2-a:3,4-b’]diindol-5-ium chloride] | 4270 ± 662 nM | 820 ± 76 nM | 1.92 | 1.34 | 1100 ± 74 nM | 
